The values that follow are results of earlier work, collected in US9205152B2, “Melt-blended protein composition” (Kimberly-Clark Worldwide, Inc., priority 2010, dated 2015).

For the data set the following is noted: pH prior to incorporation into the composition.

As for `OCC(O)CO` [glycerol], the pH result is reported as “about 6”.
